Non-standard residues stand in square brackets, D forms with d. No end group written: not given here. Nle = CCCC[C@H](N)C(=O)O
Test system: MDCK cells
Experiment: c-Met/HGF stimulated MDCK cell proliferation (MTT)
Type: cell-based, canine
Conditions: HGF 10 ng/ml, COMPOUND 2 10^−6M to 10^−14M, four days
Method: Thereafter, 10 ng/ml of HGF alone and with the indicated concentrations of Norleual in a 1% FBS DMEM were added to the cells. The cells were cultured under these conditions for four days. On the fourth day, the treatment media was aspirated and replaced with 5 mg/ml of MTT reagent in 0.1 M glycine buffer (Invitrogen). The MTT reagent was incubated with the cells for four hours at 37° C. before adding DMSO to solubilize the cells and record the MTT absorbance on a plate reader. The controls were treated as background and subtracted from all of the treatments to determine the increase in proliferation due solely to HGF treatment. Differences between the treatments were determined using one-way ANOVA with Bonferroni's post-hoc analysis (Prism statistical analysis software). * indicate p<0.05 vs. HGF treatment. N=6, mean+/−SEM. […] Madin-Darby Canine Kidney (MDCK) cells were plated in the wells of a 96 well plate in 100 μl of complete Dulbecco's Modified Eagle's Medium (DMEM). The cells were serum starved for 24 hours to induce quiescence. […] Absorbance of the cleaved substrate was quantitated on a Biotek Synergy HT 2 plate reader according to the manufacturer's instructions. […] The data was analyzed with Prism® (GraphPad, San Diego, Calif.) statistical analysis software. * indicates p<0.01 vs. HGF treatment by Tukey's post-hoc analysis. […]

## Nle-Tyr-Leu-ψ-His-Pro-Phe ([Nle]YLHPF; also: reduced peptide bond psi(CH2NH2) between Leu and His) [Norleual]
  HGF stimulated MDCK cellular proliferation: attenuation
Listed as Compound 2
  HGF stimulated MDCK cellular proliferation: inhibited

— patent publication US8236761B2, “C-Met receptor regulation by angiotensin IV (AT4) receptor ligands” (Washington State University Research Foundation, priority 2006, dated 2012)
